Measurements from patent US9695155B2, “Herbicidal substituted pyrimidinyloxy benzene compounds” (E. I. DU PONT DE NEMOURS AND COMPANY, priority 2013, dated 2017).

How the values were obtained:
[1] = system: barnyardgrass; assay: Test A preemergence; type: in vivo, Echinochloa crus-galli; conditions: for Barnyardgrass plant response rating (0 to 100 scale, 0 is no effect, 100 is complete control): 125 g ai/ha
In short: (§1)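 Visual 0–100 rating (100 = complete control) taken about 10 d post-treatment relative to untreated checks. Preemergence: directed soil spray on sown loam/sand pots. Postemergence: seedlings 2–10 cm, 1–2 leaf. Non-phytotoxic solvent formulation with surfactant.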

[2] = system: large (Lg) crabgrass; assay: Test A preemergence; type: in vivo, Digitaria sanguinalis; conditions: for Crabgrass, Large plant response rating (0 to 100 scale): 125 g ai/ha
In short: as §1

[3] = system: giant foxtail; assay: Test A preemergence; type: in vivo, Setaria faberii; conditions: for Foxtail, Giant plant response rating (0 to 100 scale): 125 g ai/ha
In short: as §1

[4] = system: morningglory; assay: Test A preemergence; type: in vivo, Ipomoea spp.; conditions: for Morningglory plant response rating (0 to 100 scale): 125 g ai/ha
In short: as §1

[5] = system: pigweed; assay: Test A preemergence; type: in vivo, Amaranthus retroflexus; conditions: for Pigweed plant response rating (0 to 100 scale): 125 g ai/ha
In short: as §1

[6] = system: velvetleaf; assay: Test A preemergence; type: in vivo, Abutilon theophrasti; conditions: for Velvetleaf plant response rating (0 to 100 scale): 125 g ai/ha
In short: as §1

[7] = system: wheat; assay: Test A preemergence; type: in vivo, Triticum aestivum; conditions: for Wheat plant response rating (0 to 100 scale): 125 g ai/ha
In short: as §1

[8] = system: corn; assay: Test A preemergence; type: in vivo, Zea mays; conditions: for Corn plant response rating (0 to 100 scale): 125 g ai/ha
In short: as §1

[9] = system: barnyardgrass; assay: Test A postemergence; type: in vivo, Echinochloa crus-galli
In short: as §1

[10] = system: large (Lg) crabgrass; assay: Test A postemergence; type: in vivo, Digitaria sanguinalis
In short: as §1

[11] = system: giant foxtail; assay: Test A postemergence; type: in vivo, Setaria faberii
In short: as §1

[12] = system: morningglory; assay: Test A postemergence; type: in vivo, Ipomoea spp.
In short: as §1

[13] = system: pigweed; assay: Test A postemergence; type: in vivo, Amaranthus retroflexus
In short: as §1

[14] = system: velvetleaf; assay: Test A postemergence; type: in vivo, Abutilon theophrasti
In short: as §1

[15] = system: wheat; assay: Test A postemergence; type: in vivo, Triticum aestivum
In short: as §1

[16] = system: corn; assay: Test A postemergence; type: in vivo, Zea mays
In short: as §1

[17] = system: rice; assay: Test B flooded paddy test; type: in vivo, Oryza sativa; conditions: Flood, 250 g ai/ha; 0 to 100 scale where 0 is no effect and 100 is complete control
In short: (§2)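 Flooded to 3 cm at the 2-leaf stage, pots received compound through the paddy water and were kept at that depth under greenhouse conditions. After 13–15 days, effect was rated by eye relative to controls, 0 = none and 100 = complete control.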

[18] = system: sedge, umbrella; assay: Test B flooded paddy test; type: in vivo, Cyperus difformis; conditions: Flood, 250 g ai/ha; 0 to 100 scale where 0 is no effect and 100 is complete control
In short: as §2

[19] = system: Heteranthera limosa; assay: Test B flooded paddy test; type: in vivo; conditions: Flood, 250 g ai/ha; 0 to 100 scale where 0 is no effect and 100 is complete control
In short: as §2

[20] = system: barnyardgrass; assay: Test B flooded paddy test; type: in vivo, Echinochloa crus-galli; conditions: Flood, 250 g ai/ha; 0 to 100 scale where 0 is no effect and 100 is complete control
In short: as §2

[21] = 500 g ai/ha, 0 to 100 scale where 0 is no effect and 100 is complete control
[22] = 125 g ai/ha, 0 to 100 scale where 0 is no effect and 100 is complete control
[23] = 1000 g ai/ha, 0 to 100 scale, 0 no effect, 100 complete control, approx. 10 days
[24] = 1000 g ai/ha, 0 to 100 scale, 0 no effect, 100 complete control
[25] = 125 g ai/ha, 0 to 100 scale, 0 no effect, 100 complete control

N#Cc1cc(F)cc(Oc2ncc(Cl)cn2)c1-n1cc(Br)cn1 [Compound 238]
100: Barnyardgrass plant response rating [1, 21] | Crabgrass, Large plant response rating (0 to 100 scale) [2] | Crabgrass, Large plant response rating [2, 21] | Foxtail, Giant plant response rating (0 to 100 scale) [3] | Foxtail, Giant plant response rating [3, 21] | Morningglory plant response rating [4, 21] | Pigweed plant response rating (0 to 100 scale) [5] | Pigweed plant response rating [5, 21] | Plant response rating, Barnyardgrass [9, 21] | Pigweed plant response rating [13, 22] | Plant response rating, Pigweed [13, 21] | Plant response rating, Velvetleaf [14, 21]
90: Velvetleaf plant response rating [6, 21] | Corn plant response rating [8, 21] | Plant response rating, Crabgrass, Large [10, 21] | Plant response rating, Foxtail, Giant [11, 21] | Plant response rating, Sedge, Umbrella [18]
70: Barnyardgrass plant response rating (0 to 100 scale, 0 is no effect, 100 is complete control) [1] | Velvetleaf plant response rating (0 to 100 scale) [6] | Plant response rating, Ducksalad [19]
60: Crabgrass, Large plant response rating [10, 22] | Foxtail, Giant plant response rating [11, 22] | Plant response rating, Morningglory [12, 21] | Velvetleaf plant response rating [14, 22] | Plant response rating, Wheat [15, 21]
10: Morningglory plant response rating (0 to 100 scale) [4]
0: Wheat plant response rating (0 to 100 scale) [7] | Corn plant response rating (0 to 100 scale) [8] | Wheat plant response rating [15, 22] | Corn plant response rating [16, 22] | Plant response rating, Rice [17] | Plant response rating, Barnyardgrass [20]
40: Barnyardgrass plant response rating [9, 22] | Morningglory plant response rating [12, 22]
80: Plant response rating, Corn [16, 21]
30: Wheat plant response rating [7, 21]

CC(=O)c1cn(-c2c(Br)cccc2Oc2ncc(Cl)cn2)nn1 [Compound 280]
90: Plant response rating, Barnyardgrass [9, 24] | Plant response rating, Crabgrass, Large [10, 24] | Plant response rating, Foxtail, Giant [11, 24] | Plant response rating, Velvetleaf [14, 24]
40: Wheat plant response rating [7, 23] | Plant response rating, Wheat [15, 24]
0: Morningglory plant response rating [4, 23]
10: Plant response rating, Rice [17] | Plant response rating, Sedge, Umbrella [18] | Plant response rating, Barnyardgrass [20]
50: Corn plant response rating [8, 23] | Plant response rating, Corn [16, 24]
30: Plant response rating, Morningglory [12, 24] | Plant response rating, Ducksalad [19]
100: Barnyardgrass plant response rating [1, 23] | Crabgrass, Large plant response rating [2, 23] | Foxtail, Giant plant response rating [3, 23] | Pigweed plant response rating [5, 23] | Velvetleaf plant response rating [6, 23] | Plant response rating, Pigweed [13, 24]

CC1(C)OB(c2cnn(-c3c(C#N)cccc3Oc3ncc(Cl)cn3)c2)OC1(C)C [Compound 285]
100: Crabgrass, Large plant response rating [2, 21] | Foxtail, Giant plant response rating [3, 21] | Pigweed plant response rating [5, 21] | Plant response rating, Pigweed [13, 21]
20: Foxtail, Giant plant response rating (0 to 100 scale) [3] | Wheat plant response rating [7, 21] | Corn plant response rating [8, 21] | Plant response rating, Wheat [15, 21]
10: Velvetleaf plant response rating (0 to 100 scale) [6] | Plant response rating, Crabgrass, Large [10, 25]
0: Barnyardgrass plant response rating (0 to 100 scale, 0 is no effect, 100 is complete control) [1] | Morningglory plant response rating (0 to 100 scale) [4] | Wheat plant response rating (0 to 100 scale) [7] | Corn plant response rating (0 to 100 scale) [8] | Plant response rating, Barnyardgrass [9, 25] | Plant response rating, Foxtail, Giant [11, 25] | Plant response rating, Wheat [15, 25] | Plant response rating, Corn [16, 25] | Plant response rating, Rice [17] | Plant response rating, Sedge, Umbrella [18] | Plant response rating, Ducksalad [19] | Plant response rating, Barnyardgrass [20]
60: Plant response rating, Foxtail, Giant [11, 21]
40: Morningglory plant response rating [4, 21] | Velvetleaf plant response rating [6, 21] | Plant response rating, Crabgrass, Large [10, 21] | Plant response rating, Morningglory [12, 21]
30: Barnyardgrass plant response rating [1, 21] | Plant response rating, Barnyardgrass [9, 21] | Plant response rating, Morningglory [12, 25] | Plant response rating, Velvetleaf [14, 25] | Plant response rating, Corn [16, 21]
80: Crabgrass, Large plant response rating (0 to 100 scale) [2] | Pigweed plant response rating (0 to 100 scale) [5] | Plant response rating, Pigweed [13, 25] | Plant response rating, Velvetleaf [14, 21]

Clc1cnc(Oc2cccc(-c3ncco3)c2-n2cc(Br)cn2)nc1 [Compound 287]
0: Barnyardgrass plant response rating (0 to 100 scale, 0 is no effect, 100 is complete control) [1] | Barnyardgrass plant response rating [1, 21] | Crabgrass, Large plant response rating (0 to 100 scale) [2] | Foxtail, Giant plant response rating (0 to 100 scale) [3] | Morningglory plant response rating (0 to 100 scale) [4] | Morningglory plant response rating [4, 21] | Pigweed plant response rating (0 to 100 scale) [5] | Velvetleaf plant response rating (0 to 100 scale) [6] | Velvetleaf plant response rating [6, 21] | Wheat plant response rating (0 to 100 scale) [7] | Wheat plant response rating [7, 21] | Corn plant response rating (0 to 100 scale) [8] | Corn plant response rating [8, 21] | Plant response rating, Barnyardgrass [9, 25] | Plant response rating, Barnyardgrass [9, 21] | Plant response rating, Foxtail, Giant [11, 25] | Plant response rating, Foxtail, Giant [11, 21] | Plant response rating, Wheat [15, 25] | Plant response rating, Wheat [15, 21] | Plant response rating, Corn [16, 25] | Plant response rating, Corn [16, 21] | Plant response rating, Rice [17] | Plant response rating, Sedge, Umbrella [18] | Plant response rating, Ducksalad [19] | Plant response rating, Barnyardgrass [20]
100: Pigweed plant response rating [5, 21]
40: Foxtail, Giant plant response rating [3, 21]
70: Crabgrass, Large plant response rating [2, 21]
20: Plant response rating, Crabgrass, Large [10, 21] | Plant response rating, Morningglory [12, 21] | Plant response rating, Velvetleaf [14, 21]
50: Plant response rating, Pigweed [13, 21]
10: Plant response rating, Crabgrass, Large [10, 25] | Plant response rating, Morningglory [12, 25] | Plant response rating, Velvetleaf [14, 25]
30: Plant response rating, Pigweed [13, 25]

NN=Cc1cccc(Oc2ncc(Cl)cn2)c1-n1cc(Br)cn1 [Compound 288]
20: Pigweed plant response rating (0 to 100 scale) [5] | Plant response rating, Crabgrass, Large [10, 21] | Plant response rating, Foxtail, Giant [11, 21] | Plant response rating, Morningglory [12, 25] | Plant response rating, Velvetleaf [14, 25]
100: Plant response rating, Pigweed [13, 21]
10: Barnyardgrass plant response rating [1, 21] | Crabgrass, Large plant response rating [2, 21] | Velvetleaf plant response rating [6, 21] | Plant response rating, Barnyardgrass [9, 21] | Plant response rating, Crabgrass, Large [10, 25] | Plant response rating, Foxtail, Giant [11, 25] | Plant response rating, Corn [16, 21]
90: Pigweed plant response rating [5, 21] | Plant response rating, Pigweed [13, 25]
40: Plant response rating, Morningglory [12, 21]
0: Barnyardgrass plant response rating (0 to 100 scale, 0 is no effect, 100 is complete control) [1] | Crabgrass, Large plant response rating (0 to 100 scale) [2] | Foxtail, Giant plant response rating (0 to 100 scale) [3] | Foxtail, Giant plant response rating [3, 21] | Morningglory plant response rating (0 to 100 scale) [4] | Morningglory plant response rating [4, 21] | Velvetleaf plant response rating (0 to 100 scale) [6] | Wheat plant response rating (0 to 100 scale) [7] | Wheat plant response rating [7, 21] | Corn plant response rating (0 to 100 scale) [8] | Corn plant response rating [8, 21] | Plant response rating, Barnyardgrass [9, 25] | Plant response rating, Wheat [15, 25] | Plant response rating, Wheat [15, 21] | Plant response rating, Corn [16, 25] | Plant response rating, Rice [17] | Plant response rating, Sedge, Umbrella [18] | Plant response rating, Ducksalad [19] | Plant response rating, Barnyardgrass [20]
30: Plant response rating, Velvetleaf [14, 21]
